In BigSolDB 2.1:

CCOc1ccc(C2NC(=O)NC=C2C(=O)c2cc(OC)c(OC)c(OC)c2)cc1 (stereo not given)
solubility (mole fraction) (in DMSO, 298.15 K): 0.00547
solubility (mole fraction) (in DMSO, 303.15 K): 0.0065
solubility (mole fraction) (in DMSO, 308.15 K): 0.00754
solubility (mole fraction) (in DMSO, 313.15 K): 0.00879
solubility (mole fraction) (in DMSO, 318.15 K): 0.00996
solubility (mole fraction) (in PEG-400, 298.15 K): 0.00521
solubility (mole fraction) (in PEG-400, 303.15 K): 0.00675
solubility (mole fraction) (in PEG-400, 308.15 K): 0.00831
solubility (mole fraction) (in PEG-400, 313.15 K): 0.0103
solubility (mole fraction) (in PEG-400, 318.15 K): 0.0121
solubility (mole fraction) (in ethanol, 298.15 K): 0.000294
solubility (mole fraction) (in ethanol, 303.15 K): 0.000402
solubility (mole fraction) (in ethanol, 308.15 K): 0.000516
solubility (mole fraction) (in ethanol, 313.15 K): 0.000654
solubility (mole fraction) (in ethanol, 318.15 K): 0.000802
solubility (mole fraction) (in ethyl acetate, 298.15 K): 0.00143
solubility (mole fraction) (in ethyl acetate, 303.15 K): 0.00174
solubility (mole fraction) (in ethyl acetate, 308.15 K): 0.00222
solubility (mole fraction) (in ethyl acetate, 313.15 K): 0.00286
solubility (mole fraction) (in ethyl acetate, 318.15 K): 0.00345
solubility (mole fraction) (in ethylene glycol, 298.15 K): 0.000397
solubility (mole fraction) (in ethylene glycol, 303.15 K): 0.000543
solubility (mole fraction) (in ethylene glycol, 308.15 K): 0.000697
solubility (mole fraction) (in ethylene glycol, 313.15 K): 0.000866
solubility (mole fraction) (in ethylene glycol, 318.15 K): 0.00107
solubility (mole fraction) (in isopropanol, 298.15 K): 0.000469
solubility (mole fraction) (in isopropanol, 303.15 K): 0.000619
solubility (mole fraction) (in isopropanol, 308.15 K): 0.000772
solubility (mole fraction) (in isopropanol, 313.15 K): 0.000958
solubility (mole fraction) (in isopropanol, 318.15 K): 0.00113
solubility (mole fraction) (in methanol, 298.15 K): 0.000252
solubility (mole fraction) (in methanol, 303.15 K): 0.000328
solubility (mole fraction) (in methanol, 308.15 K): 0.000407
solubility (mole fraction) (in methanol, 313.15 K): 0.00049
solubility (mole fraction) (in methanol, 318.15 K): 0.000577
solubility (mole fraction) (in n-butanol, 298.15 K): 0.000672
solubility (mole fraction) (in n-butanol, 303.15 K): 0.000859
solubility (mole fraction) (in n-butanol, 308.15 K): 0.00105
solubility (mole fraction) (in n-butanol, 313.15 K): 0.00125
solubility (mole fraction) (in n-butanol, 318.15 K): 0.00146
solubility (mole fraction) (in propylene glycol, 298.15 K): 0.000504
solubility (mole fraction) (in propylene glycol, 303.15 K): 0.000682
solubility (mole fraction) (in propylene glycol, 308.15 K): 0.00087
solubility (mole fraction) (in propylene glycol, 313.15 K): 0.00107
solubility (mole fraction) (in propylene glycol, 318.15 K): 0.00133
solubility (mole fraction) (in sec-butanol, 298.15 K): 0.00067
solubility (mole fraction) (in sec-butanol, 303.15 K): 0.000855
solubility (mole fraction) (in sec-butanol, 308.15 K): 0.00104
solubility (mole fraction) (in sec-butanol, 313.15 K): 0.00124
solubility (mole fraction) (in sec-butanol, 318.15 K): 0.00145
solubility (mole fraction) (in transcutol, 298.15 K): 0.00301
solubility (mole fraction) (in transcutol, 303.15 K): 0.00367
solubility (mole fraction) (in transcutol, 308.15 K): 0.00441
solubility (mole fraction) (in transcutol, 313.15 K): 0.00519
solubility (mole fraction) (in transcutol, 318.15 K): 0.00624
solubility (mole fraction) (in water, 298.15 K): 7.87e-06
solubility (mole fraction) (in water, 303.15 K): 1.09e-05
solubility (mole fraction) (in water, 308.15 K): 1.51e-05
solubility (mole fraction) (in water, 313.15 K): 2.02e-05
solubility (mole fraction) (in water, 318.15 K): 2.54e-05
